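Five compound concentrations were applied to cells in 96-well plates for 48 hours; endpoints were derived by simple linear interpolation of the resulting dose-response curve. GI50: concentration for 50% inhibition of growth.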 Calls of active or inactive are those of the source. Cut-off read from the data, not from the text of the source: active = GI50 up to about 1.1 µM and inactive = higher.
Columns and labels:
Assay in all cases: NCI-60 cell line screen, 48 h
[1] = test system: SF-268
[2] = test system: MDA-MB-231
[3] = test system: M14
[4] = test system: OVCAR-8
[5] = test system: MDA-MB-435
[6] = test system: RXF 393
[7] = test system: SNB-75
[8] = test system: A549
[9] = test system: RPMI-8226
[10] = test system: SK-MEL-2
[11] = test system: SN12C
[12] = test system: HCT-15
[13] = test system: MCF7
[14] = test system: NCI-H226
[15] = test system: HCC 2998
[16] = test system: 786-0
[17] = test system: OVCAR-3
[18] = test system: HL-60
[19] = test system: Malme-3M
[20] = test system: SR

Row | Structure (SMILES) | GI50 [1] | GI50 [2] | GI50 [3] | GI50 [4] | GI50 [5] | GI50 [6] | GI50 [7] | GI50 [8] | GI50 [9] | GI50 [10] | GI50 [11] | GI50 [12] [µM] | GI50 [13] | GI50 [14] | GI50 [15] | GI50 [16] | GI50 [17] | GI50 [18] | GI50 [19] | GI50 [20]
1 | C1CSCCCSCCSCCCSC1 | > 100 µM (inactive) | > 100 µM (inactive) | > 100 µM (inactive) | > 100 µM (inactive) | > 100 µM (inactive) | > 100 µM (inactive) | > 100 µM (inactive) | > 100 µM (inactive) | > 100 µM (inactive) | > 100 µM (inactive) | > 100 µM (inactive) | > 100 | > 100 µM (inactive) | > 100 µM (inactive) | > 100 µM (inactive) | > 100 µM (inactive) | – | – | – | –
2 | Cc1ccccc1NC(=O)CC1C(=O)Nc2ccccc2[S+]1[O-] (stereo not drawn) | > 100 µM (inactive) | – | > 100 µM (inactive) | 47.9 µM (inactive) | – | 26.6 µM (inactive) | 25.6 µM (inactive) | > 100 µM (inactive) | > 100 µM (inactive) | > 100 µM (inactive) | 74 µM (inactive) | > 100 | – | > 100 µM (inactive) | > 100 µM (inactive) | 49.7 µM (inactive) | > 100 µM (inactive) | > 100 µM (inactive) | > 100 µM (inactive) | > 100 µM (inactive)
3 | O=C(N/N=C/C=C/c1ccc([N+](=O)[O-])o1)c1ccc(C(=O)N/N=C/C=C/c2ccc([N+](=O)[O-])o2)cc1 | 15.8 µM (inactive) | – | 14.8 µM (inactive) | 13.2 µM (inactive) | 37.2 µM (inactive) | 25.9 µM (inactive) | > 100 µM (inactive) | > 100 µM (inactive) | 7.62 µM (inactive) | > 69.2 µM (inactive) | > 37.9 µM (inactive) | 37.4 | 34.4 µM (inactive) | > 100 µM (inactive) | 12.9 µM (inactive) | 20.1 µM (inactive) | 31.7 µM (inactive) | 19.8 µM (inactive) | 12.7 µM (inactive) | 17.3 µM (inactive)
4 | COC(=O)C1CCC(=S)N1C(C)=O (stereo not drawn) | > 100 µM (inactive) | > 100 µM (inactive) | > 100 µM (inactive) | > 100 µM (inactive) | > 100 µM (inactive) | > 100 µM (inactive) | > 100 µM (inactive) | > 100 µM (inactive) | > 100 µM (inactive) | > 100 µM (inactive) | – | > 100 | > 100 µM (inactive) | – | > 100 µM (inactive) | > 100 µM (inactive) | > 100 µM (inactive) | – | > 100 µM (inactive) | –
5 | C#CCn1c(=O)c2ccccc2n(CC#C)c1=O | > 10 µM (inactive) | > 10 µM (inactive) | > 10 µM (inactive) | > 10 µM (inactive) | > 10 µM (inactive) | > 10 µM (inactive) | > 10 µM (inactive) | > 10 µM (inactive) | > 10 µM (inactive) | > 10 µM (inactive) | > 10 µM (inactive) | > 10 | > 10 µM (inactive) | > 10 µM (inactive) | > 10 µM (inactive) | > 10 µM (inactive) | > 10 µM (inactive) | – | > 10 µM (inactive) | –
6 | CC(=O)OC1CC2CCC1(C)C2(C)C (stereo not drawn) | > 100 µM (inactive) | > 100 µM (inactive) | > 100 µM (inactive) | > 100 µM (inactive) | > 100 µM (inactive) | > 100 µM (inactive) | > 100 µM (inactive) | – | > 100 µM (inactive) | > 100 µM (inactive) | > 100 µM (inactive) | > 100 | > 100 µM (inactive) | > 100 µM (inactive) | > 100 µM (inactive) | > 100 µM (inactive) | > 100 µM (inactive) | > 100 µM (inactive) | > 100 µM (inactive) | –
7 | CN(C)c1ccc(C2C(Cl)C(=O)N2NC(=O)c2c(Cl)c(Cl)c(Cl)c(Cl)c2-c2nc3ccccc3[nH]2)cc1 (stereo not drawn) | 11.5 µM (inactive) | – | 13.3 µM (inactive) | 2.4 µM (inactive) | 4.76 µM (inactive) | 2.48 µM (inactive) | 15.6 µM (inactive) | 31.6 µM (inactive) | – | 21.8 µM (inactive) | 11.1 µM (inactive) | 12.9 | 5.53 µM (inactive) | 15.8 µM (inactive) | 16.3 µM (inactive) | 2.56 µM (inactive) | 19.4 µM (inactive) | 3.3 µM (inactive) | 16.3 µM (inactive) | 0.685 µM (active)
8 | CC(=O)OC1C/C(C)=C/CCC(C)/C=C/C2(C)CCC(C(C)(C)O)C12 (stereo not drawn) | 61.7 µM (inactive) | – | 52.6 µM (inactive) | 57 µM (inactive) | – | 14 µM (inactive) | 40.7 µM (inactive) | 53 µM (inactive) | 23.2 µM (inactive) | 34.4 µM (inactive) | 32.1 µM (inactive) | 43.9 | – | 45.1 µM (inactive) | 57.4 µM (inactive) | 65 µM (inactive) | 46.7 µM (inactive) | 24.2 µM (inactive) | 63 µM (inactive) | 18.6 µM (inactive)
9 | N=C1N(c2ccccc2)C(=O)C23CCCC2C13N1CCOCC1 (stereo not drawn) | > 100 µM (inactive) | – | > 100 µM (inactive) | > 100 µM (inactive) | – | > 100 µM (inactive) | > 100 µM (inactive) | > 100 µM (inactive) | > 100 µM (inactive) | > 100 µM (inactive) | > 100 µM (inactive) | > 100 | – | > 100 µM (inactive) | > 100 µM (inactive) | > 100 µM (inactive) | > 100 µM (inactive) | > 100 µM (inactive) | > 100 µM (inactive) | > 100 µM (inactive)
10 | Cc1ccnc(NC(=S)Nc2cccc(Cl)c2)c1 | > 100 µM (inactive) | – | > 100 µM (inactive) | > 100 µM (inactive) | > 100 µM (inactive) | > 100 µM (inactive) | 23.1 µM (inactive) | > 100 µM (inactive) | > 100 µM (inactive) | > 100 µM (inactive) | > 100 µM (inactive) | > 100 | > 100 µM (inactive) | – | – | > 100 µM (inactive) | > 100 µM (inactive) | > 100 µM (inactive) | – | > 100 µM (inactive)
11 | COc1c(-c2ccccc2)nc2ccc(Oc3ccccc3)nn12 | > 56.4 µM (inactive) | – | > 59.8 µM (inactive) | > 64 µM (inactive) | – | > 38.8 µM (inactive) | > 57.5 µM (inactive) | > 57.5 µM (inactive) | 7.6 µM (inactive) | > 54 µM (inactive) | > 56.6 µM (inactive) | 17.7 | – | 29.7 µM (inactive) | > 64.9 µM (inactive) | > 61.5 µM (inactive) | > 77.6 µM (inactive) | 7.33 µM (inactive) | 37.8 µM (inactive) | 13.8 µM (inactive)
12 | COC(C)(C)OCCN1CCN(CCN2C3=C(C=C(C(C)=O)C3)Sc3ccccc32)CC1 | 19.6 µM (inactive) | 22.3 µM (inactive) | 20.3 µM (inactive) | 20.9 µM (inactive) | 16 µM (inactive) | 17.9 µM (inactive) | 30.5 µM (inactive) | 32.6 µM (inactive) | 14.3 µM (inactive) | 20.2 µM (inactive) | 26.7 µM (inactive) | 19.6 | – | 22.9 µM (inactive) | 20.4 µM (inactive) | 19.1 µM (inactive) | 22.2 µM (inactive) | 16.6 µM (inactive) | 21.3 µM (inactive) | 15.6 µM (inactive)
13 | O=C(Nc1ccccc1F)c1cc2ccc(O)cc2o/c1=N\c1cccc(F)c1 | 19.2 µM (inactive) | – | 15.7 µM (inactive) | 9.48 µM (inactive) | 14.8 µM (inactive) | – | – | 7.98 µM (inactive) | 3.24 µM (inactive) | 14.3 µM (inactive) | – | 10.2 | 15.1 µM (inactive) | – | 15.3 µM (inactive) | 15 µM (inactive) | 11.5 µM (inactive) | 5.28 µM (inactive) | 21.6 µM (inactive) | 12.9 µM (inactive)
14 | O=[N+]([O-])c1cc2c(cc1/C=N/n1c(CO)nc3ccccc31)OCO2 | > 100 µM (inactive) | > 100 µM (inactive) | > 100 µM (inactive) | > 100 µM (inactive) | > 100 µM (inactive) | > 100 µM (inactive) | > 100 µM (inactive) | > 100 µM (inactive) | > 100 µM (inactive) | > 100 µM (inactive) | > 100 µM (inactive) | > 100 | > 100 µM (inactive) | > 100 µM (inactive) | – | > 100 µM (inactive) | > 100 µM (inactive) | > 100 µM (inactive) | > 100 µM (inactive) | –
15 | COC(C)(C)[C@@H]1CCCN1C1=C(C)C(=O)OC1 | > 100 µM (inactive) | > 100 µM (inactive) | – | – | – | > 100 µM (inactive) | > 10 µM (inactive) | – | > 100 µM (inactive) | > 100 µM (inactive) | > 100 µM (inactive) | > 100 | > 100 µM (inactive) | – | > 100 µM (inactive) | > 100 µM (inactive) | – | > 100 µM (inactive) | > 100 µM (inactive) | > 100 µM (inactive)
16 | COC(=O)c1ccccc1C1CN=NC12Cc1cc3c(cc1C2=O)CCC3 (stereo not drawn) | 62.4 µM (inactive) | 40.1 µM (inactive) | 49.4 µM (inactive) | 48.2 µM (inactive) | 44.5 µM (inactive) | > 100 µM (inactive) | 61.4 µM (inactive) | 63.4 µM (inactive) | – | > 100 µM (inactive) | 92.9 µM (inactive) | > 100 | 49.8 µM (inactive) | 80 µM (inactive) | 47.1 µM (inactive) | > 100 µM (inactive) | 82.4 µM (inactive) | 21.4 µM (inactive) | 95.9 µM (inactive) | –
